According to the NIST ThermoML archive (doi:10.1016/j.jct.2017.03.026):
Values joined by “and” are separate entries in the source; they are usually repeats but may differ in a detail not shown here. Equal values may be shown once.

Test: molar heat capacity at constant pressure
Details: 101.33 kPa, Crystal, Small (less than 1 g) adiabatic calorimetry

O.O.O.O.O.O=S(=O)([O-])[O-].[Cu+2] [copper(II) sulfate pentahydrate]
Details	molar heat capacity at constant pressure
4.261 K	0.5156 J/K/mol
4.305 K	0.5483 J/K/mol
4.311 K	0.5046 J/K/mol
4.335 K	0.5159 J/K/mol
4.395 K	0.5368 J/K/mol
4.524 K	0.5196 J/K/mol
4.539 K	0.5173 J/K/mol
4.569 K	0.4829 J/K/mol
4.583 K	0.5241 J/K/mol
4.777 K	0.4969 J/K/mol
4.798 K	0.4984 J/K/mol
4.823 K	0.4929 J/K/mol
4.824 K	0.4432 J/K/mol
4.978 K	0.5029 J/K/mol
5 K	0.4962 J/K/mol
5.069 K	0.4964 J/K/mol
5.082 K	0.4427 J/K/mol
5.104 K	0.4944 J/K/mol
5.177 K	0.4896 J/K/mol
5.342 K	0.4946 J/K/mol
5.372 K	0.4889 J/K/mol
5.378 K	0.4929 J/K/mol
5.56 K	0.4939 J/K/mol
5.621 K	0.4969 J/K/mol
5.651 K	0.4969 J/K/mol
5.749 K	0.4906 J/K/mol
5.9 K	0.5111 J/K/mol
5.914 K	0.4479 J/K/mol
5.925 K	0.5016 J/K/mol
5.937 K	0.4989 J/K/mol
6.172 K	0.5019 J/K/mol
6.291 K	0.5248 J/K/mol
6.303 K	0.5186 J/K/mol and 0.4587 J/K/mol
6.448 K	0.5358 J/K/mol
6.726 K	0.5553 J/K/mol
6.774 K	0.5665 J/K/mol
6.778 K	0.5585 J/K/mol
6.783 K	0.4881 J/K/mol
7.002 K	0.5855 J/K/mol
7.249 K	0.6135 J/K/mol
7.254 K	0.6117 J/K/mol
7.273 K	0.6282 J/K/mol
7.547 K	0.6634 J/K/mol
7.713 K	0.7001 J/K/mol
7.723 K	0.6939 J/K/mol
7.725 K	0.6355 J/K/mol
7.824 K	0.7166 J/K/mol
8.096 K	0.7788 J/K/mol
8.182 K	0.7853 J/K/mol
8.189 K	0.786 J/K/mol
8.19 K	0.7356 J/K/mol
8.371 K	0.8474 J/K/mol
8.632 K	0.9011 J/K/mol
8.65 K	0.9014 J/K/mol and 0.8412 J/K/mol
8.653 K	0.8934 J/K/mol
8.928 K	0.968 J/K/mol
9.09 K	1.043 J/K/mol
9.107 K	0.9518 J/K/mol
9.116 K	1.028 J/K/mol
9.204 K	1.057 J/K/mol
9.48 K	1.134 J/K/mol
9.555 K	1.149 J/K/mol
9.563 K	1.103 J/K/mol
9.583 K	1.165 J/K/mol
9.756 K	1.2 J/K/mol
10 K	1.299 J/K/mol
10.02 K	1.297 J/K/mol and 1.25 J/K/mol
10.03 K	1.306 J/K/mol
10.05 K	1.315 J/K/mol
10.4 K	1.456 J/K/mol
10.7 K	1.569 J/K/mol
10.71 K	1.536 J/K/mol
10.77 K	1.6 J/K/mol
10.86 K	1.634 J/K/mol
11.32 K	1.835 J/K/mol
11.62 K	1.99 J/K/mol
11.63 K	1.944 J/K/mol
11.7 K	2.014 J/K/mol
11.78 K	2.059 J/K/mol
12.24 K	2.283 J/K/mol
12.54 K	2.453 J/K/mol
12.55 K	2.432 J/K/mol
12.62 K	2.5 J/K/mol
12.7 K	2.533 J/K/mol
13.16 K	2.801 J/K/mol
13.47 K	3.01 J/K/mol and 3.006 J/K/mol
13.55 K	3.048 J/K/mol
13.62 K	3.099 J/K/mol
14.09 K	3.404 J/K/mol
14.24 K	3.51 J/K/mol
14.39 K	3.63 J/K/mol
14.4 K	3.652 J/K/mol
14.48 K	3.676 J/K/mol
14.55 K	3.735 J/K/mol
15 K	4.062 J/K/mol
15.33 K	4.33 J/K/mol and 4.316 J/K/mol and 4.374 J/K/mol
16.27 K	5.102 J/K/mol and 5.148 J/K/mol
16.34 K	5.147 J/K/mol
17.21 K	5.92 J/K/mol
17.22 K	5.985 J/K/mol
17.34 K	6.038 J/K/mol
18.16 K	6.788 J/K/mol
18.17 K	6.865 J/K/mol
18.34 K	6.974 J/K/mol
19.12 K	7.738 J/K/mol and 7.803 J/K/mol
19.34 K	7.95 J/K/mol
20 K	8.662 J/K/mol
20.07 K	8.711 J/K/mol
20.08 K	8.781 J/K/mol
20.34 K	8.968 J/K/mol
21.52 K	10.37 J/K/mol and 10.5 J/K/mol
21.84 K	10.73 J/K/mol
22.86 K	11.97 J/K/mol
23.43 K	12.81 J/K/mol
23.44 K	12.67 J/K/mol
23.8 K	13.12 J/K/mol
23.86 K	13.21 J/K/mol
24.84 K	14.42 J/K/mol
25 K	14.64 J/K/mol
25.35 K	15.41 J/K/mol
25.49 K	15.25 J/K/mol
25.75 K	15.84 J/K/mol
25.81 K	15.7 J/K/mol
26.5 K	16.59 J/K/mol
26.79 K	16.97 J/K/mol
27.28 K	18.19 J/K/mol
27.48 K	17.9 J/K/mol
27.72 K	18.24 J/K/mol
27.77 K	18.33 J/K/mol
28.45 K	19.31 J/K/mol
28.75 K	19.73 J/K/mol
29.23 K	20.9 J/K/mol
29.43 K	20.68 J/K/mol
29.7 K	21.26 J/K/mol
29.73 K	21.15 J/K/mol
30 K	21.51 J/K/mol
30.41 K	22.11 J/K/mol
30.7 K	22.53 J/K/mol
31.22 K	23.13 J/K/mol
31.39 K	23.59 J/K/mol
31.68 K	24.03 J/K/mol and 23.15 J/K/mol
32.37 K	25.14 J/K/mol
32.66 K	25.56 J/K/mol
33.19 K	26.4 J/K/mol
33.35 K	26.55 J/K/mol
33.65 K	27.01 J/K/mol
33.66 K	26.86 J/K/mol
34.34 K	28.1 J/K/mol
34.62 K	28.57 J/K/mol
35 K	29.13 J/K/mol
35.15 K	29.64 J/K/mol
35.31 K	29.65 J/K/mol
35.61 K	30.07 J/K/mol
35.64 K	30.19 J/K/mol
36.17 K	31.27 J/K/mol
36.26 K	31.26 J/K/mol
36.29 K	31.18 J/K/mol
36.59 K	31.76 J/K/mol
